Data published in PMC10584170, “Machine learning-based phenotypic imaging to characterise the targetable biology of Plasmodium falciparum male gametocytes for the development of transmission-blocking antimalarials” (PLOS Pathogens, 2023).
Read-outs that look alike come from different tables or passages of the source.

What was measured:
[1] = system: P. falciparum male gametocytes; assay: P. falciparum Dual Gamete Formation Assay (PfDGFA), male readout (exflagellation); assay type: cell-based, Plasmodium falciparum NF54; settings: for Average inhibition male (%) / % inhibition male (individual replicates) R1 / % inhibition male (individual replicates) R3 / % inhibition male (individual replicates) R4 / inhibition at 2 µM: 24h preincubation with gametocytes; for % inhibition male (individual replicates) R3: replicate R3; for Selectivity Ratio M: HepG2 Tox50 versus male IC50; for IC50: PfDGFA, 24 h incubation with gametocytes before induction, exflagellation readout, read-out: Male IC50; for HitlevelM: number of replicates with >50% inhibition in the male readout
Summary of the method: (§1)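 NF54 mature gametocytes (d14), cpd 24 h 37°C hypoxic gas; trigger: xanthurenic acid ookinete medium + Cy3 anti-Pfs25, 4°C 4 min → 28°C 4 min. Male: exflagellation centres, brightfield x6. Female: Pfs25+ gametes, fluorescence, +24 h 28°C dark.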

[2] = system: P. falciparum female gametocytes; assay: P. falciparum Dual Gamete Formation Assay (PfDGFA), female readout (Pfs25-positive female gametes); assay type: cell-based, Plasmodium falciparum NF54; settings: for Average inhibition female (%) / % inhibition female (individual replicates) R1 / % inhibition female (individual replicates) R3 / % inhibition female (individual replicates) R4 / inhibition at 2 µM: 24h preincubation with gametocytes; for Selectivity ratio F: HepG2 Tox50 versus female IC50; for IC50: PfDGFA, 24 h incubation with gametocytes before induction, female gamete readout, read-out: Female IC50; for HitlevelF: number of replicates with >50% inhibition in the female readout
Summary of the method: as §1

[3] = system: HepG2 cells; assay: HepG2 cytotoxicity counter-screen; settings: cytotoxic activity against HepG2 cells
[4] = PfDGFA at 2µM, average of replicates

| SMILES | Average inhibition male (%) ([1]; 2µM, average of replicates) | % inhibition male (individual replicates) R1 ([1]; 2µM, replicate R1) | % inhibition male (individual replicates) R4 ([1]; 2µM, replicate R4) | Selectivity Ratio M [1] | IC50 [1] | Average inhibition female (%) ([2]; 2µM, average of replicates) | % inhibition female (individual replicates) R1 ([2]; 2µM, replicate R1) | Selectivity ratio F [2] | Tox50 [3] | HitlevelM ([1]; 2µM) | HitlevelF ([2]; 2µM) | IC50 [2] | Average inhibition male (%) [1, 4] | % inhibition male (individual replicates) R1 ([1]; PfDGFA at 2µM, replicate R1) | % inhibition male (individual replicates) R3 ([1]; PfDGFA at 2µM) | % inhibition male (individual replicates) R4 ([1]; PfDGFA at 2µM, replicate R4) | Average inhibition female (%) [2, 4] | % inhibition female (individual replicates) R1 ([2]; PfDGFA at 2µM, replicate R1) | % inhibition female (individual replicates) R3 ([2]; PfDGFA at 2µM, replicate R3) | % inhibition female (individual replicates) R4 ([2]; PfDGFA at 2µM, replicate R4) | further results |
| --- | --- | --- | --- | --- | --- | --- | --- | --- | --- | --- | --- | --- | --- | --- | --- | --- | --- | --- | --- | --- | --- |
| COc1cc(Nc2nccc(-c3c(-c4cccc(NC(=O)c5c(F)cccc5F)c4)nn4ncccc34)n2)cc(OC)c1OC [TCMDC-135684] | 97.0% | 96.5% | 98.2% | 4.28 | 270 nM | 9.6% | 8.4% | 0.12 | 1.17 µM | – | – | – | – | – | – | – | – | – | – | – | % inhibition male (individual replicates) R3 ([1]; 2µM): 98.0%; % inhibition female (individual replicates) R3 ([2]; 2µM, replicate R3): 15.7%; % inhibition female (individual replicates) R4 ([2]; 2µM, replicate R4): 19.8% |
| CCn1c(-c2nonc2N)nc2c(-c3ccccc3)ncc(OCCCNCCCN3CCOCC3)c21.O=C(O)C(F)(F)F [TCMDC-135858] | – | – | – | 11.73 | – | – | – | 2.48 | 16.12 µM | 3 | 0 | – | – | – | – | – | – | – | – | – | inhibition at 2 µM ([1]; Plasmodium falciparum, PfDGFA at 2µM, average of replicates, read-out: Average inhibition male (%)): 85.1%; inhibition at 2 µM ([1]; Plasmodium falciparum, PfDGFA at 2µM, replicate R1, read-out: % inhibition male (individual replicates) R1): 80.4%; inhibition at 2 µM ([1]; Plasmodium falciparum, PfDGFA at 2µM, replicate R2, read-out: % inhibition male (individual replicates) R2): 88.6%; inhibition at 2 µM ([1]; Plasmodium falciparum, PfDGFA at 2µM, replicate R4, read-out: % inhibition male (individual replicates) R4): 86.5%; IC50 ([1]; Plasmodium falciparum): 1370 nM; inhibition at 2 µM ([2]; Plasmodium falciparum, PfDGFA at 2µM, average of replicates, read-out: Average inhibition female (%)): 23%; inhibition at 2 µM ([2]; Plasmodium falciparum, PfDGFA at 2µM, replicate R1, read-out: % inhibition female (individual replicates) R1): 22.7%; inhibition at 2 µM ([2]; Plasmodium falciparum, PfDGFA at 2µM, replicate R2, read-out: % inhibition female (individual replicates) R2): 28.7%; inhibition at 2 µM ([2]; Plasmodium falciparum, PfDGFA at 2µM, replicate R3, read-out: % inhibition female (individual replicates) R3): 18.7%; inhibition at 2 µM ([2]; Plasmodium falciparum, PfDGFA at 2µM, replicate R4, read-out: % inhibition female (individual replicates) R4): 21.9%; IC50 ([2]; Plasmodium falciparum): 6490 nM |
| CS(=O)(=O)O.FC(F)(F)COc1c(CCNCCCCNCCc2ccc3ccccc3c2OCC(F)(F)F)ccc2ccccc12 [TCMDC-137169] | 91.7% | 101.1% | 99.1% | 3.23 | 810 nM | 87.0% | 87.1% | 2.09 | 2.63 µM | – | – | 1260 nM | – | – | – | – | – | – | – | – | % inhibition male (individual replicates) R3 ([1]; 2µM): 96.8%; % inhibition female (individual replicates) R3 ([2]; 2µM, replicate R3): 97.3%; % inhibition female (individual replicates) R4 ([2]; 2µM, replicate R4): 102.2% |
| CCN(CC)CCOc1ccc(C(O)(C#CC(O)(c2ccc(C)cc2)c2ccc(OCCN(CC)CC)cc2)c2ccc(C)cc2)cc1 (stereo not drawn) [TCMDC-137198] | – | – | – | 2.02 | 1300 nM | – | – | 0.55 | 2.63 µM | 4 | 0 | 4730 nM | 80.0% | 79.9% | 84.8% | 81.8% | 31.2% | 31.1% | 8.3% | 48.8% | – |
| CCN(CC)CCOc1ccc(C(O)(C#CC(O)(c2ccc(Br)cc2)c2ccc(OCCN(CC)CC)cc2)c2ccc(Br)cc2)cc1 (stereo not drawn) [TCMDC-137199] | – | – | – | 3.23 | 610 nM | – | – | 1.56 | 1.99 µM | 4 | 0 | 1270 nM | 78.4% | 76.2% | 84.3% | 81.8% | 19.7% | 20.5% | 18.5% | 25.4% | – |
| CCN(CC)CCOc1ccc(C(O)(C#CC(O)(c2ccc(OCCN(CC)CC)cc2)c2ccc([N+](=O)[O-])cc2)c2ccc([N+](=O)[O-])cc2)cc1 (stereo not drawn) [TCMDC-137201] | – | – | – | 2.26 | 1540 nM | – | – | 1.17 | 3.49 µM | 4 | 2 | 2990 nM | 85.9% | 82.3% | 94.6% | 93.0% | 55.9% | 46.7% | 67.0% | 64.5% | – |
| CCCCOc1ccc(CNCCCCCCNCc2ccc(OCCCC)c3ccccc23)c2ccccc12.CS(=O)(=O)O [TCMDC-137281] | – | – | – | 2.64 | 550 nM | – | – | 2.64 | 1.45 µM | 4 | 4 | 550 nM | 88.9% | 95.9% | 90.2% | 93.5% | 94.7% | 94.0% | 97.9% | 90.5% | – |
| CS(=O)(=O)O.FC(F)(F)COc1ccc(CCNCCCCNCCc2ccc(OCC(F)(F)F)c3ccccc23)c2ccccc12 [TCMDC-137282] | 98.5% | 98.3% | 97.4% | 4.68 | 510 nM | 56.0% | 58.1% | 1.73 | 2.39 µM | – | – | 1380 nM | – | – | – | – | – | – | – | – | % inhibition female (individual replicates) R3 ([2]; 2µM, replicate R3): 59.1%; % inhibition female (individual replicates) R4 ([2]; 2µM, replicate R4): 54.8% |
| COc1ccc2c(CNCCCCCCNCc3c(OC)ccc4cc(OC)ccc34)c(OC)ccc2c1.CS(=O)(=O)O [TCMDC-137300] | 90.0% | 98.2% | 96.8% | 2.01 | 1810 nM | 77.0% | 80.6% | 0.75 | 3.63 µM | – | – | 4850 nM | – | – | – | – | – | – | – | – | % inhibition male (individual replicates) R3 ([1]; 2µM): 95.7%; % inhibition female (individual replicates) R3 ([2]; 2µM, replicate R3): 93.8%; % inhibition female (individual replicates) R4 ([2]; 2µM, replicate R4): 84.0% |
| CS(=O)(=O)O.FC(F)(F)COc1ccc2ccccc2c1CCNCCCCNCCc1c(OCC(F)(F)F)ccc2ccccc12 [TCMDC-137317] | – | – | – | 0.53 | 1520 nM | – | – | 0.26 | 0.8 µM | 4 | 1 | 3050 nM | 88.2% | 92.7% | 68.3% | 96.2% | 40.6% | 30.1% | 13.1% | 36.4% | – |
| C=CCOc1ccc2ccccc2c1CNCCCCCCNCc1c(OCC=C)ccc2ccccc12.CS(=O)(=O)O [TCMDC-137340] | – | – | – | 1.99 | 1930 nM | – | – | 1.38 | 3.85 µM | 4 | 2 | 2790 nM | 87.7% | 90.7% | 68.3% | 95.6% | 45.4% | 35.2% | 31.1% | 51.0% | – |
